Counter-ions that a name gives are not always drawn. Like-named read-outs stand apart in the source and are kept apart here.
Tests used:
[1] = tested on: ventricular arrhythmia induced by coronary artery ligation; details: dog; cited from earlier work
[2] = cited from earlier work; for toxic / side effects: Goodman and Gilman
cardiac arrhythmia = details: cited from earlier work
[3] = tested on: ventricular arrhythmia induced by coronary artery ligation; assay: Inhibition of ventricular arrhythmia induced by coronary ligation (two-stage ligation of left coronary artery); assay type: in vivo, dog; details: for minimal effective dose: Canis lupus familiaris, iv, read-out: Minimum Effective Dose
Description: Arrhythmias induced in this manner are considered similar in nature to those resulting from myocardial infarction in humans. […] The antiarrhythmic and antiaggregatory activities of the compounds of this invention illustrated in the examples were tested by the following methods.
Ventricular arrhythmia was induced by a two-stage ligation of the anterior descending branch of the left coronary artery in each of two or more dogs. Compounds were administered intraveneously using an initial 5 mg/kg body weight dose, with additional doses injected at intervals to a maximum of 20 mg/kg. A compound was rated active if it produced at least a 25% reduction in ectopic beats for a period of at least ten minutes in half or more of the dogs. The average minimum effective dose for each compound was calculated.
Compounds which produced 75-100% reduction in the ventricular arrhythmia at the initial 5 mg/kg dose were further tested using 1 mg/kg doses injected as before at five minute intervals. As before, a compound was rated active if it produced at least a 25% reduction in ectopic beats for a period of at least ten minutes in half or more of the dogs. The average minimum effective dose for each compound was calculated.

[4] = tested on: ADP-induced aggregation of blood platelets; assay: Inhibition of ADP-induced platelet aggregation (optical platelet aggregometry in platelet-rich plasma); assay type: cell-based; details: rat platelet-rich plasma; one minute incubation, ADP usually 1-3 mcM
[5] = dog, i.v., coronary ligation, average minimum dose giving at least 25% reduction in ectopic beats for at least ten minutes in half or more of the dogs

Row | IC50 [4] [µM] | SMILES | activity of known antiarrhythmics under coronary ligation conditions [1] | toxic / side effects [2] | activity in man (cardiac arrhythmia) | minimal effective dose [3, 5] [mg/kg] | also measured
1 |  | CC(C)N(CCC(C(N)=O)(c1ccccc1)c1ccccn1)C(C)C (stereo not drawn) [Disopyramide] | active under these conditions | anticholinergic effects | active in man |  | effective refractory period of the atrium ([2]; at therapeutic levels): lengthens the effective refractory period of the atrium; refractory period of the A-V node ([2]; at therapeutic levels): minimal effect on the refractory period of the A-V node; sinus node recovery time ([2]; at therapeutic levels): shortens the sinus node recovery time; Human dose (i.v.) (cardiac arrhythmia; human, i.v., comment in Table 1): ca. 2 mpk; minimal effective dose [3]: 9.2 mg/kg
2 | 88 | CC(C)N(CCC1(c2ccccc2Cl)CC2CCCCN2C1=O)C(C)C (racemic) [Example 6, 2-[2-[bis(1-methylethyl)amino]ethyl]-2-(2-chlorophenyl)hexahydro-3(2H)-indolizinone, Racemate A] |  |  |  | 3 | 
3 | 34 | CC(C)N(CCC1(c2ccc(-c3ccccc3)cc2)CC2CCCCN2C1=O)C(C)C (stereo not drawn) [Example 10, 2-[2-[bis(1-methylethyl)amino]ethyl]-2-(4-phenylphenyl)hexahydro-3(2H)-indolizinone] |  |  |  | 3 | 
4 |  | C=C[C@H]1C[N@@]2CC[C@H]1C[C@@H]2[C@@H](O)c1ccnc2ccc(OC)cc12 [Quinidine] | active under these conditions | exhibits several toxic reactions, such as cinchonism | active in man |  | 
5 |  | CCN(CC)CCNC(=O)c1ccc(N)cc1 [Procainamide] | active under these conditions |  | active in man |  | 
6 |  | CC(C)N(CCC1(c2ccccc2)CC2CCCCN2C1=O)C(C)C (stereo not drawn) [Example 3, 2-[2-[bis(1-methylethyl)amino]ethyl]-hexahydro-2-phenyl-3(2H)-indolizinone] |  |  |  | 5 | 
7 | 81 | CC(C)N(CCC1(c2ccccc2)CC2CCCCN2C1=O)C(C)C (stereo not drawn) [Example 11, 2-[2-[bis(1-methylethyl)amino]ethyl]hexahydro-2-phenyl-3(2H)-indolizinone hydrochloride hydrate] |  |  |  |  | 
8 |  | CC(C)NCC(O)COc1cccc2ccccc12 (stereo not drawn) [Propranolol] |  | may induce significant hypotension, left ventricular failure, or even cardiovascular collapse |  |  | 
9 |  | CC(C)N(CCC1(c2ccccc2Cl)CC2CCCCN2C1=O)C(C)C (racemic) [Example 7, 2-[2-[bis(1-methylethyl)-amino]ethyl]-2-(2-chlorophenyl)hexahydro-3(2H)-indolizinone, Racemate B] |  |  |  |  | Minimum Effective Dose ([3]; dog, i.v., coronary ligation, average minimum dose giving at least 25% reduction in ectopic beats for at least ten minutes in half or more of the dogs, listed as Ex. 7): 5.0 mpk

— patent US4567270A, “Hexahydroindolizinones useful for treating cardiac arrhythmia, thrombotic disorders in mammals” (G. D. Searle & Co., priority 1984, dated 1986)
